From patent US20180355441A1, “VISUAL DETECTION OF PLATINATED DNA LESIONS FROM A CLICKABLE CISPLATIN PROBE USED AS DIAGNOSTIC TOOL OR TO IDENTIFY SYNERGISTIC TREATMENTS” (CENTRE NATIONAL DE LA RECHERCHE SCIENTIFIQUE, priority 2015, published 2018)

Key:
DNA-Pt in U2OS cells = assay: Screen of small molecule modulators of genome targeting using ACP staining as readout; type: cell-based, human; conditions: U2OS cells co-treated with small molecule and ACP, confocal microscopy
Procedure: Labeled DNA-Pt were analyzed by confocal microscopy.
[…], ACP, APPOA and CP were prepared in the laboratory as described in the synthesis section of the methods. Suberoylanilide hydroxamic acid (SAHA) was purchased from Sigma and cisplatin was purchased from Tocris.
Data were analyzed with ImagaJ.

histone H4 = assay: Western blot of histone H4 acetylation; type: cell-based, human; conditions: U2OS cells
Procedure: Cells were washed once with PBS and lysed in lysis buffer (50 mM Tris-HCl, pH 7.5, 150 mM NaCl, 1 mM EDTA, 1% Triton X-100). For Western blot, samples were briefly sonicated followed by boiling in SDS sample buffer and separated by SDS-PAGE gels. Proteins were transferred to nitrocellulose membrane (GE Healthcare) and western blotting was performed following standard protocols. Western blots were detected by chemiluminescence (GE Healthcare Amersham ECL prime) using a Bio-Rad Molecular Imager ChemiDoc XRS+ system. The primary antibodies used for western blotting: H2AX (Millipore; #07-627), γH2AX [pSer139] (Novus Biologicals; NB100-384), histone H4 (Abcam; ab7311), acetyl-histone H4 (Lys16) (Cell Signaling; #8804), acetyl-histone H4 (Millipore; #06-866), PCNA (Santa Cruz Biotech; PC10), RAD18 (Cell Signaling; #21000), PARP (Cell Signaling; #9542), β-tubulin (Abcam; ab6046). Secondary antibodies used were: anti-rabbit IgG, HRP-linked (Cell Signaling; #7074), anti-mouse IgG, HRP-linked (Cell Signaling; #7076).

[1] = test system: genomic DNA from U2OS cells; conditions: compared to equal amounts of DNA collected from CP-treated cells; 3 h treatment
Text: Samples were air dried and visualized using a Bio-Rad Molecular Imager ChemiDoc XRS+ system.

[2] = test system: 26-mer hairpin-forming DNA oligonucleotide containing a single 1,2-GG dinucleotide; conditions: 37° C., 18 h
Procedure: The reaction of hp with ACP was performed at 37° C. for 18 h. Unbound ACP and salts were removed using a Sephadex G-25 Medium size exclusion resin (GE Healthcare) on laboratory prepared spin columns (BioRad).

U2OS cells = assay: Cell viability assay (CellTiter-Blue), anti-proliferative activity; type: cell-based, human; conditions: 72 h treatment
Procedure: Cell viability assays were carried out by plating U2OS cells (2,000 cells per well) in 96-well plates.

Row | Compound | Effect on ACP staining (DNA-Pt) by visual inspection (DNA-Pt in U2OS cells) | Histone H4 acetylation (histone H4) | Fluorescence of labeled genomic DNA (dot blot) [1] | Reactivity towards DNA and labeling by alkyne-containing tag in vitro [2] | Anti-proliferative activity against U2OS cells (U2OS cells)
1 | O=C(CCCCCCC(=O)Nc1ccccc1)NO [SAHA, Suberoylanilide hydroxamic acid] | led to the occurrence of foci of DNA-Pt | induced histone hyperacetylation of histone H4 |  |  | 
2 | 2-aminomethylpyridine(dichloro)platinum(II) azide [ACP] |  |  | higher level of fluorescence | can chemoselectively cross react with DNA and be labeled by an alkyne-containing tag | exhibited anti-proliferative properties
3 | Nc1ncn([C@@H]2O[C@H](CO)[C@@H](O)[C@H]2O)c(=O)n1 [Compound 5-Aza, 5-Azacytidine] | led to the occurrence of foci of DNA-Pt |  |  |  | 
4 | N.N.[Cl][Pt][Cl] [cisplatin] |  |  |  |  | exhibited anti-proliferative properties
